Source: US20090286836A1, “Novel Compounds” (priority 2008, published 2009)
Structures can show the parent of a compound that is named as a salt.

What was measured:
[1] = target: T1, human NK3 receptor (Homo sapiens, UniProt P29371); assay: NK functional potency, FLIPR calcium release in U2OS cells (NKB as ligand); assay type: cell-based; settings: BacMam human NK3, average of at least two determinations, read-out: NK3 pKi (functional potency, fpKi) (converted)
T1 construct: expressed in transfected cells; host or cells: human U2OS cells transiently transduced with recombinant BacMam virus
T1 sequence (P29371 1-465): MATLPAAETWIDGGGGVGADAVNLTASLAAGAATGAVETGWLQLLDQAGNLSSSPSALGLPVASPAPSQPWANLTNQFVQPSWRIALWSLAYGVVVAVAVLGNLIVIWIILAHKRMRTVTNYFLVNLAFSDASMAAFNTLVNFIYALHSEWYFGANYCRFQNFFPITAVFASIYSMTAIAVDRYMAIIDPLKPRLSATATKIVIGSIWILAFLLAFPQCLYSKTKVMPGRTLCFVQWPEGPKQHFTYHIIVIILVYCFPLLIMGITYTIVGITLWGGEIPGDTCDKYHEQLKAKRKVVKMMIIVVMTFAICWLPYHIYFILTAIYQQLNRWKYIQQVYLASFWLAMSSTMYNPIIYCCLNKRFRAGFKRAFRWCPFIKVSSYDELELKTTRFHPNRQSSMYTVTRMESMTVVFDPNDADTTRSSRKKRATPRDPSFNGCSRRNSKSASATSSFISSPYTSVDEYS
Description: (§1) Compounds of the invention were further characterised in a functional assay using FLIPR technology for the determination of their effect to inhibit the intracellular calcium release induced by interaction of NK receptors with its perspective ligands. Human U2OS cells transiently transduced with recombinant BacMam virus expressing human NK1, NK2 and NK3 receptors were used in the studies (see J. P. Condreay et al, Proc. Natl. Acad. Sci. USA 1999, 96(1): 127-132). Briefly, U2OS cells were harvested from tissue culture flasks, re-suspended to a cell density of 200-300K/ml and mixed with recombinant BacMam virus carrying NKR gene in a virus/cell ratio of 1% (v/v). 10K-15K cells/well were then seeded in 384-well Greiner bio-one plate in culture medium (DMEM with 10% FBS), incubated overnight in 5% CO2 at 37° C. After aspirating the medium, cells were loaded 18-24 hr later with cytoplasmic calcium indicator Fluo-4 Calcium 3 dye (Molecular Devices Co.) in 30 uL/well buffer (Hank's balanced salts with 20 mM Hepes) and incubated in CO2 at 37° C. for 60 minutes. 10 uL/well assay buffer (Hank's balanced salts with 20 mM Hepes) containing different concentrations of compounds were then added to the cells for 30 minutes incubation at 37° C. Finally, 10 uL/well of NKR ligands in assay buffer containing 0.1% BSA was added to the cells and fluorescence signal read on a FLIPR system. Substance P, NKA and NKB peptides were used as the ligands for NK1, NK2 and NK3 receptor, respectively. IC50 values of each compound were determined by an 11-point 3×-dilution inhibition curve. The potency each antagonist (fpKi) was calculated from pIC50 by the Cheng-Prusoff equation using EC50 of ligand determined in a separate experiment.
(§2) The compounds of Example 11, Examples 2, 4 and 6 were tested in the NK functional potency assay.

[2] = target: T2, human NK1 receptor (Homo sapiens, UniProt P25103); assay: NK functional potency, FLIPR calcium release in U2OS cells (Substance P as ligand); assay type: cell-based; design: expressed in transfected cells; host or cells: human U2OS cells transiently transduced with recombinant BacMam virus; settings: BacMam human NK1, average of at least two determinations, read-out: NK1 pKi (functional potency, fpKi) (converted)
Description: as §1, §2

[3] = target: T3, human NK2 receptor (Homo sapiens, UniProt P21452); assay: NK functional potency, FLIPR calcium release in U2OS cells (NKA as ligand); assay type: cell-based; settings: BacMam human NK2, average of at least two determinations, read-out: NK2 pKi (functional potency, fpKi) (converted)
T3 construct: expressed in transfected cells; host or cells: human U2OS cells transiently transduced with recombinant BacMam virus
T3 sequence (P21452 1-398): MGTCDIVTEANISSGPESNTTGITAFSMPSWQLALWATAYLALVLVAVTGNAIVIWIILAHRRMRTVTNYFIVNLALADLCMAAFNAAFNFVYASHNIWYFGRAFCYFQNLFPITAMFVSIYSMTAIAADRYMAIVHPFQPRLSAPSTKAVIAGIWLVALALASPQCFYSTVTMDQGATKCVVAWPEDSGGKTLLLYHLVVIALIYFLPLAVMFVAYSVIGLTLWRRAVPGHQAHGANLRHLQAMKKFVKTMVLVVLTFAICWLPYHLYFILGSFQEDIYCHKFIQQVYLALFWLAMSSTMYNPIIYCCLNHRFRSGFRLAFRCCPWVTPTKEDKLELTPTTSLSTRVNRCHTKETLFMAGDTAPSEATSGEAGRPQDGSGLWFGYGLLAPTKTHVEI
Description: as §1, with “After aspirating the medium, cells were loaded 18-24 hr later with cytoplasmic calcium indicator Fluo-4 Calcium 3 dye (Molecular Devices Co.) in 30 uL/well buffer (Hank's balanced salts with 20 mM Hepes) and incubated in CO2 at 37° C. for 60 minutes. 10 uL/well assay buffer (Hank's balanced salts with 20 mM Hepes) containing different concentrations of compounds were then added to the cells for 30 minutes incubation at 37° C.” left out, “Substance P, NKA and NKB peptides were used as the ligands for NK1, NK2 and NK3 receptor, respectively.” left out, “experiment. […]” for “experiment.”

[4] = target: T4, NK1 receptor (Meriones unguiculatus, UniProt Q5DUB1); assay: gerbil foot tapping model (GR73632-induced, icv); assay type: in vivo
T4 construct: from tissue; host or cells: living gerbils; central nervous system (icv agonist GR73632)
Description: The ability of the compounds of the invention to penetrate the central nervous system and to bind at the NK1 receptor may be determined using the gerbil foot tapping model as described by Rupniak & Williams, Eur. Jour. of Pharmacol., 1994. Intracerebroventricular (icv) administration of the NK1 receptor agonist GR73632 (R. M. Hagan et al., Neuropeptides 1991, 19 (2), 127-135) a characteristic hind leg foot tapping (GFT) response in gerbils which can be inhibited by potent NK1 receptor antagonists. The gerbil foot tapping paradigm was carried out as follows; gerbils were dosed with compound of the invention, and following an appropriate pre-treatment time were anaesthetised using isofluorane/oxygen mixture. The skull was then exposed and 5 ul of GR73632 ([…].) was injected by insertion of a cuffed 25G needle to a depth of 4 mm below bregma, directly into the lateral ventricle (intracerebroventricular dosing). Immediately following the injection, gerbils were placed individually into a clear observation box to recover.
Upon the gerbil regaining its righting reflex, the duration of repetitive hind foot tapping was recorded over a 5 minute period. The dose of the test compound required to inhibit by 50% the tapping induced by the NK1 agonist expressed as mg/kg is referred to as the ID50 values.

[5] = system: common marmosets; assay: marmoset human threat test; assay type: in vivo, common marmoset; settings: for No. jumps / No. postures: marmoset, oral, 1 h before test; for No. jumps: mean±SEM (n=4), index of locomotor activity; for No. postures: mean±SEM (n=7)
Protocol: For example the marmoset human threat test (Costall et al., 1988
The study utilised in house laboratory-bred male and female common marmosets over 2 years of age, weighing 300-500 g. The animals were caged in couples, in a housing room maintained at 25±1° C., 60% humidity and a 12 hour light/dark cycle (lights on at 0600, with 30 min simulated dawn and twilight). Testing was carried out with the animals situated in the home cage.
One hour before the test animals were treated orally with vehicle (0.5% HPMC) or test compound (1 ml/kg). After a wash-out period of at least three days, treatments were reassigned and the study was complete when all animals had received all treatments. Number of specific behavioural postures in response to the human threat and the number of jumps were analysed in this study. The postures recorded in the test were those described by Costall et al (1988). and the number of jumps from the back of the cage to the cage front provided an index of locomotor activity to assess potential for sedation or locomotor stimulation.
Results are expressed as mean±SEM (n=7). of number of postures and as a mean±SEM (n=4) of number of jumps. Data were subjected to one-way analysis of variance (ANOVA) followed by Dunnett's test, comparing each compound dose with vehicle treatment, using Statistica software (version 8.0) Statistically significant differences with respect to vehicle are indicated as *P<0.01.

[6] = target: T2, human NK1 receptor; assay: NK1 filtration binding assay with [3H]-GR205171 on human NK1-CHO cell membranes; design: expressed in transfected cells; settings: average of five independent experiments, [3H]-GR205171 radioligand, read-out: NK1 binding affinity pKi (converted)
Protocol: The NK1 binding affinity of the compounds of the invention was determined using the following filtration binding assay using [^3H]-GR205171 as radioligand for human NK1 receptor stably expressed in CHO (Chinese Hamster Ovary) cells (see C. Griffante et al, Br. J. Pharmacol. 2006, 148, 39-45; H. M. Sarau et al, J. Pharmacol. Experimental Therapeutics 2000, 295(1), 373-381 and D. T. Beattie et al., Br. J. Pharmacol. 1995, 116, 3149-3157).
CHO cells stably expressing the human cloned neurokinin NK1 receptor were cultured in Dulbecco's Modified Eagle's Medium/F12 Ham (DMEM/F12Ham) supplemented with 10% foetal bovine serum and 2 mM L-glutamine. Cells were maintained in 5% CO2 in a humidified incubator at 37° C. […]
Binding assay was carried out in 96 deep well polypropylene plates (Whatman) in a volume of 400 μl consisted of 100 μl of incubation buffer (containing 50 mM HEPES, pH 7.4, 3 mM MnCl2, and 0.02% BSA), 4 μl of DMSO (total binding) or increasing concentrations of the compounds in the invention dissolved in DMSO (1 pM-1 μM final concentration), 100 μl of the radioligand [^3H]-GR205171 (0.2 nM final concentration) in incubation buffer and 200 μl of human NK1-CHO cell membranes suspension (4 μg/ml final) in incubation buffer. […] Filterplates were dried and retained radioactivity was counted in a Top Count (Perkin-Elmer). […]

T4 sequence (Q5DUB1 whole entry): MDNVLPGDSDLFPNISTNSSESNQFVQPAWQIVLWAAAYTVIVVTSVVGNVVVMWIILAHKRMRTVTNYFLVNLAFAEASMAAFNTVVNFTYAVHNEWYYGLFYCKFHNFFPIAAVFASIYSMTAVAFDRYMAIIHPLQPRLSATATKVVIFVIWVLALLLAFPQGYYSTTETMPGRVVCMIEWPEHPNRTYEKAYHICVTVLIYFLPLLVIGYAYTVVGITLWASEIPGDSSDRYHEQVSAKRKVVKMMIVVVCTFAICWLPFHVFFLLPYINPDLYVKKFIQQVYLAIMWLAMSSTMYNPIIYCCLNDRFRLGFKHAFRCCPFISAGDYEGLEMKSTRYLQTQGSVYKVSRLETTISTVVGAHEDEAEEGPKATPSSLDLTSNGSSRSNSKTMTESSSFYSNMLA
T2 sequence (P25103 whole entry): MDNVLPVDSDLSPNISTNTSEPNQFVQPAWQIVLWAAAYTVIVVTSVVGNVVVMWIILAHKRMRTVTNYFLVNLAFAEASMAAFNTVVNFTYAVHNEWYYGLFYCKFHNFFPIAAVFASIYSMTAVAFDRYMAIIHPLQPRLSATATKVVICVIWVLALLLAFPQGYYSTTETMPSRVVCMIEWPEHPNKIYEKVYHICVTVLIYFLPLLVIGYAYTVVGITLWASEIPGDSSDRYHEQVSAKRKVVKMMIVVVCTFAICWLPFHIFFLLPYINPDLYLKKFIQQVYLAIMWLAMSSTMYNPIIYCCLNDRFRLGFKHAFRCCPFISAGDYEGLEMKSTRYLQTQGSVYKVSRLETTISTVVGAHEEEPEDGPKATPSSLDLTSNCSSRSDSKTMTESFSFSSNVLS

Row | Structure (SMILES) | Ki [1] [nM] | Ki [2] [nM] | Ki [3] [nM] | GR73632-induced Foot Tapping behaviour ([4]; gerbil, 0.3, 1.0 and 3.0 mg/kg p.o (P<0.01)) | ID50 as plasma concentration ([4]; gerbil, p.o., GR73632 icv) | ED50 ([4]; po, gerbil, p.o., GR73632 icv, read-out: ID50, dose inhibiting by 50% the foot tapping induced by the NK1 agonist) [mg/kg] | effect on number of postures (anxiolytic effect) ([5]; marmoset, 0.1, 0.3 or 1 mg/kg oral, significant at 0.3 and 1 mg/kg (P<0.01), no reduction in number of jumps) | No. jumps ([5]; 0.1 mg/kg) | No. postures ([5]; 0.1 mg/kg) | No. jumps ([5]; 0.3 mg/kg) | No. postures ([5]; 0.3 mg/kg, *P<0.01 vs vehicle) | No. jumps ([5]; 1 mg/kg) | No. postures ([5]; 1 mg/kg, *P<0.01 vs vehicle) | Ki [6] [nM]
1 | Cc1cc(F)ccc1-c1cc([C@@H]2CC[C@](C)(C(N)=O)N2)ncc1N(C)C(=O)C(C)(C)c1cc(C(F)(F)F)cc(C(F)(F)F)c1 [Example 6, (5S)-5-[5-[{2-[3,5-bis(trifluoromethyl)phenyl]-2-methylpropanoyl}(methyl)amino]-4-(4-fluoro-2-methylphenyl)-2-pyridinyl]-2-methyl-D-prolinamide hydrochloride] | 158 | < 0.17 |  |  |  |  |  |  |  |  |  |  |  | 
2 | Cc1cc(F)ccc1-c1cc([C@H]2CC[C@@](C)(C(N)=O)N2)ncc1N(C)C(=O)C(C)(C)c1cc(C(F)(F)F)cc(C(F)(F)F)c1 [Example 4, (5R)-5-[5-[{2-[3,5-bis(trifluoromethyl)phenyl]-2-methylpropanoyl}(methyl)amino]-4-(4-fluoro-2-methylphenyl)-2-pyridinyl]-2-methyl-L-prolinamide hydrochloride] | 63.1 | < 0.17 |  |  |  |  |  |  |  |  |  |  |  | 
3 | Cc1cc(F)ccc1-c1cc([C@H]2CC[C@](C)(C(N)=O)N2)ncc1N(C)C(=O)C(C)(C)c1cc(C(F)(F)F)cc(C(F)(F)F)c1 [Example 2, (5R)-5-[5-[{2-[3,5-bis(trifluoromethyl)phenyl]-2-methylpropanoyl}(methyl)amino]-4-(4-fluoro-2-methylphenyl)-2-pyridinyl]-2-methyl-D-prolinamide hydrochloride] | 79.4 | < 0.17 |  |  |  |  |  |  |  |  |  |  |  | 
4 | Cc1cc(F)ccc1-c1cc([C@H]2CC[C@](C)(C(N)=O)N2)ncc1N(C)C(=O)C(C)(C)c1cc(C(F)(F)F)cc(C(F)(F)F)c1 [Example 11, (5R)-5-[5-[{2-[3,5-bis(trifluoromethyl)phenyl]-2-methylpropanoyl}(methyl)amino]-4-(4-fluoro-2-methylphenyl)-2-pyridinyl]-2-methyl-D-prolinamide bis-hydrochloride] | 31.6 | 0.0794 | > 1000 | significantly attenuated | approximately 5 ng/ml plasma | ~0.2 | dose dependent reduction in the number of postures | 20.1 ± 2.1 | 9.4 ± 1.0 | 13.4 ± 2.5 | *6.3 ± 0.9 | 13.0 ± 2.1 | *4.0 ± 0.4 | 0.132
